Laboratory results taken from US20260191835A1, “COMBINATIONS COMPRISING A MENIN-MLL INHIBITOR AND AT LEAST ONE OTHER THERAPEUTIC AGENT” (JANSSEN PHARMACEUTICA NV, priority 2022, published 2026).

System: MOLM-13 tumors
Assay: Efficacy (survival) in disseminated MOLM-13 (KMT2A-rearranged) model in NSG mice
Assay type: in vivo
Conditions: NSG mice bearing established MOLM-13 tumors, vs vehicle; Azacitidine 2 mg/kg ip QD × 7; Compound 51 2 mg/kg po QD × 28; n = 10
Procedure: 4) Efficacy of Menin-MLL Inhibitor in Combination with Azacitidine in MOLM-13 (KMT2A-Rearranged) Model in NSG Mice
Compound 51 was formulated in purified pyrogen-free deionized water, pH 4.0 and prepared to reach a total volume of 8 mL/kg. Doses were adjusted by individual body weight each day. Working stocks of Compound 51 were prepared once per week for each study and stored at 25° C.
Female NSG (NOD.Cg-Prkdc^scid Il2rg^tm1Wjl/SzJ) mice were used when they were approximately 6 to 8 weeks of age and weighed approximately 25 g. All animals could acclimate and recover from any shipping-related stress for a minimum of 7 days prior to experimental use. […]
Animals were monitored daily for clinical signs related to either compound toxicity or tumor burden (i.e., hind limb paralysis, lethargy, etc.).
For survival assessment, results were plotted as the percentage survival against days post tumor implant. […] Median survival was determined utilizing Kaplan-Meier survival analysis. The percent increased life span (ILS) was calculated as: ((median survival day of treated group−median survival day of control group)/median survival day of control group)×100. […]
Survival and body weight data were graphically represented utilizing Prism (Version 9). Statistical significance for body weights was evaluated as described above. […]

For `CC(=O)N1CCC(CN2CC[C@@H](Cc3cn(-c4ccc(F)cc4C(=O)N(C)C(C)C)c4cncc(C)c34)C2)CC1` [Compound 51], the “% ILS (increased life span)” value was “*5%”.
